Assay results from article doi:10.1101/2024.08.19.608619, “Discovery of potent SARS-CoV-2 nsp3 macrodomain inhibitors uncovers lack of translation to cellular antiviral response” (bioRxiv, 2024).
“And” between values parts separate entries of the source, which are not always exact repeats. Identical values can stand only once.

What was measured:
[1] = Hepatic microsomal stability, MLM; type: in vitro ADME; settings: In vitro mouse liver microsomal stability
CB2 (h) = target: T1, CB2 (h) (Homo sapiens, UniProt P34972); assay: In vitro CEREP profiling, CB2 (h) (agonist radioligand); type: binding; settings: test compound 10 uM
T1 construct: purchased Eurofins Cerep (SafetyScreen44), recognised from the panel format
From the text: (§1) Supplement media-1.zip/Safety_Panel_Profile.csv, table | column: perc_inhibition

5-HT transporter (h) = target: T2, 5-HT transporter (h) (Homo sapiens, UniProt P31645); assay: In vitro CEREP profiling, 5-HT transporter (h) (antagonist radioligand); settings: test compound concentration 10 uM
T2 construct: purchased Eurofins Cerep (SafetyScreen44), recognised from the panel format
T2 sequence (P31645 whole entry): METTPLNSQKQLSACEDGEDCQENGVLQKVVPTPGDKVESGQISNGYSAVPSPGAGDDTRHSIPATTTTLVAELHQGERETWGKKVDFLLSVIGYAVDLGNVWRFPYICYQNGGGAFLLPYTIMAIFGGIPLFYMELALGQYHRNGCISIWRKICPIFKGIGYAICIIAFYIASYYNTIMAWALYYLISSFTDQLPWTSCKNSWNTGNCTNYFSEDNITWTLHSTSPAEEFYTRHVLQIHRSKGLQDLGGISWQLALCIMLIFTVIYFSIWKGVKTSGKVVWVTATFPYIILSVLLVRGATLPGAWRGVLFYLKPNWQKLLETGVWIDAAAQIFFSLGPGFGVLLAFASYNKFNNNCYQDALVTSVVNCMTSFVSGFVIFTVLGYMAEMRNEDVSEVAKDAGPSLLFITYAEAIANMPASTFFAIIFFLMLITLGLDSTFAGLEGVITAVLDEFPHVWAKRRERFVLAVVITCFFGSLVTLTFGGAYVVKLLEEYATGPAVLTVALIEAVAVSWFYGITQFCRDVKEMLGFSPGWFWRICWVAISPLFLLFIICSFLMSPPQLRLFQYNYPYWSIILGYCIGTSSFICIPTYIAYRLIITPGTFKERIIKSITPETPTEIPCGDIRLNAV
From the text: as §1

[2] = tested on: SARS-CoV-2, isolate USA-WA1/2020; assay: microbe, parasite or virus in culture; type: cell-based; settings: HeLa-ACE2 SARS-CoV-2 antiviral effect without P-gp inhibitor
[3] = target: T3, N neuronal alpha4beta2 (h) (Homo sapiens, UniProt P17787+P43681); assay: In vitro CEREP profiling, N neuronal alpha4beta2 (h) (agonist radioligand); type: binding; settings: test compound concentration 10 uM
T3 construct: purchased Eurofins Cerep (SafetyScreen44), recognised from the panel format
T3 sequence (P43681 29-627 limits assumed): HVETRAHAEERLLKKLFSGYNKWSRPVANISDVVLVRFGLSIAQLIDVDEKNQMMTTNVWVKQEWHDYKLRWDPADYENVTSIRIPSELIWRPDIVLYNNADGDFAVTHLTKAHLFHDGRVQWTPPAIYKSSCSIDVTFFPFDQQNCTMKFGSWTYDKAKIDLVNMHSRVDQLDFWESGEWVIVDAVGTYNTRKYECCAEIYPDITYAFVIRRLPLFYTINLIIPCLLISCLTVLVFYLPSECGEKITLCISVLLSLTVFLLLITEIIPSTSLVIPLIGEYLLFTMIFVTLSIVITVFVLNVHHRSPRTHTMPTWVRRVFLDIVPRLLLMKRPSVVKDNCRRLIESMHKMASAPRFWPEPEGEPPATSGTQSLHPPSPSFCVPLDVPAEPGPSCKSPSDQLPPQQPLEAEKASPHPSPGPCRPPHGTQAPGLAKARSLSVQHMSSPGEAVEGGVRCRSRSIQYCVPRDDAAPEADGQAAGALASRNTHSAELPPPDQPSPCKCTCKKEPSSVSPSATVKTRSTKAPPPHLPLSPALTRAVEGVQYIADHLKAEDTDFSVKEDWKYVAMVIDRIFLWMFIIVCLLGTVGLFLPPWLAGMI
T3 sequence (P17787 26-502): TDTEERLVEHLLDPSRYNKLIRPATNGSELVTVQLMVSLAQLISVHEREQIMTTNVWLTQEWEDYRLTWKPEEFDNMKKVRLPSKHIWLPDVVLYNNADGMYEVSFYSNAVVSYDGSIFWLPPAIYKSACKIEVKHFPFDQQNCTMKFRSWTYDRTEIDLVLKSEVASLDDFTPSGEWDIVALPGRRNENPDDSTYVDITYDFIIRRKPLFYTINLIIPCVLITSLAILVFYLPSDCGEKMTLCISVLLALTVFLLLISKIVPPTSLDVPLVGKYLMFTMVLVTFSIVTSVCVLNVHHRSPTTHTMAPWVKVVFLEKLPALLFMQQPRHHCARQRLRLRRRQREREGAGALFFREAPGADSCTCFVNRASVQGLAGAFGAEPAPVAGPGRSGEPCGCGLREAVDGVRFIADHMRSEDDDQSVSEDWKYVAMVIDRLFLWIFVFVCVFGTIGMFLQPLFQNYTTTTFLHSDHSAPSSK
From the text: as §1

GR (h) = target: T4, GR (h) (Homo sapiens, UniProt P04150); assay: In vitro CEREP profiling, GR (h) (agonist radioligand); type: binding; settings: test compound concentration 10 uM
T4 construct: purchased Eurofins Cerep (SafetyScreen44), recognised from the panel format
T4 sequence (P04150 1-777): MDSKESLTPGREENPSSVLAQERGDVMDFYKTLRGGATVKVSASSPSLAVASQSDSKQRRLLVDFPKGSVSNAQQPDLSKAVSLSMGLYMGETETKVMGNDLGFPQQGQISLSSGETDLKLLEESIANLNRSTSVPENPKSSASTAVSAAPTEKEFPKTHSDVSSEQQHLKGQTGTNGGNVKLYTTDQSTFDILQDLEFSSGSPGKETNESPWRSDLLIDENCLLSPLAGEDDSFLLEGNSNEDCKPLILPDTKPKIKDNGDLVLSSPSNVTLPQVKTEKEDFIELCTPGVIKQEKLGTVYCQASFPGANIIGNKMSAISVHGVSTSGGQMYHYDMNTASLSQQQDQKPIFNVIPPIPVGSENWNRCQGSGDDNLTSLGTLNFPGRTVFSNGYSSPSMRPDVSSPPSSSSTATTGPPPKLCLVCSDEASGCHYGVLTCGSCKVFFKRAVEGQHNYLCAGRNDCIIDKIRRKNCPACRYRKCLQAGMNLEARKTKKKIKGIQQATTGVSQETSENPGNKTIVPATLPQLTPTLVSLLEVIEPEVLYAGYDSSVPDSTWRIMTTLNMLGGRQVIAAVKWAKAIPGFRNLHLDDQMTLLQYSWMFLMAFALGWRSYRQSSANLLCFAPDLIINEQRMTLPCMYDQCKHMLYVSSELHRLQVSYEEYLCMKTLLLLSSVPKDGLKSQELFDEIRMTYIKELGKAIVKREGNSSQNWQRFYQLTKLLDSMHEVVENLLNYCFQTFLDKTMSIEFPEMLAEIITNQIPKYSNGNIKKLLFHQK
From the text: as §1

CYP = CYP inhibition; type: in vitro ADME; settings: In vitro CYP inhibition pooled; for potency: potency class in words
From the text: Supplement media-1.zip/CYP_Inhibition.csv, table | column: ic50; potency

acetylcholinesterase (h) = target: T5, acetylcholinesterase (h) (Homo sapiens, UniProt P22303); assay: In vitro CEREP profiling, acetylcholinesterase (h); type: biochemical; settings: test compound concentration 10 uM; Enzyme and Cell-based assays
T5 construct: purchased Eurofins Cerep (SafetyScreen44), recognised from the panel format
T5 sequence (P22303 32-614): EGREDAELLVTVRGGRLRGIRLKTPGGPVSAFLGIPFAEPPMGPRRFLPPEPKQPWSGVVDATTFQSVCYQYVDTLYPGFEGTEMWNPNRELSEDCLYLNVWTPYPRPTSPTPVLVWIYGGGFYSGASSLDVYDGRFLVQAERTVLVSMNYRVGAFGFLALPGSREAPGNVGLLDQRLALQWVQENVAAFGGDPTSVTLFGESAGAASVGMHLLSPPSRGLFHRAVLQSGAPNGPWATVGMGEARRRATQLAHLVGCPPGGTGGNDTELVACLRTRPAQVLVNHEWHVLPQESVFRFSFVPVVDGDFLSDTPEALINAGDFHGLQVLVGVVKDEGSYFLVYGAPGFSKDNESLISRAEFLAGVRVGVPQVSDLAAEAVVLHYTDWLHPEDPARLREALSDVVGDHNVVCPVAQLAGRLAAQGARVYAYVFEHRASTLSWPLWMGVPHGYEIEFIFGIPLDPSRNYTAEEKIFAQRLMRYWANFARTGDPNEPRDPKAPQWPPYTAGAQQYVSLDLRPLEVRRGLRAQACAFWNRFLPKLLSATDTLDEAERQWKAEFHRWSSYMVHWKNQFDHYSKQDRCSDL
From the text: as §1

5-HT2A (h) = target: T6, 5-HT2A (h) (Homo sapiens, UniProt P28223); assay: In vitro CEREP profiling, 5-HT2A (h) (agonist radioligand); type: binding; settings: test compound concentration 10 uM
T6 construct: purchased Eurofins Cerep (SafetyScreen44), recognised from the panel format
T6 sequence (P28223 whole entry): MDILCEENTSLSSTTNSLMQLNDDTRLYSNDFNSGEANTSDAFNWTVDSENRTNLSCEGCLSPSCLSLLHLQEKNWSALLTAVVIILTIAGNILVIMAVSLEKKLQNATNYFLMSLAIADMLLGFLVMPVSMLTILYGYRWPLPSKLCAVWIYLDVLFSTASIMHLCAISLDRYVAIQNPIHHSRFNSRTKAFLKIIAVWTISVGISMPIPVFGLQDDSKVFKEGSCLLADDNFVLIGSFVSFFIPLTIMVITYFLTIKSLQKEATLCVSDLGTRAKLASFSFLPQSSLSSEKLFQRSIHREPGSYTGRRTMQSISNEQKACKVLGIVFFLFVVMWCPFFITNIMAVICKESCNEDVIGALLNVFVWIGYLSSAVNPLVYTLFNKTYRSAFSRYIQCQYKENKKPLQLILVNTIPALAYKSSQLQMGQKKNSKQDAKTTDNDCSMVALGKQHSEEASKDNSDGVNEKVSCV
From the text: as §1

D1 (h) = target: T7, D1 (h) (Homo sapiens, UniProt P21728); assay: In vitro CEREP profiling, D1 (h) (antagonist radioligand); type: binding; settings: test compound 10 uM
T7 construct: purchased Eurofins Cerep (SafetyScreen44), recognised from the panel format
T7 sequence (P21728 whole entry): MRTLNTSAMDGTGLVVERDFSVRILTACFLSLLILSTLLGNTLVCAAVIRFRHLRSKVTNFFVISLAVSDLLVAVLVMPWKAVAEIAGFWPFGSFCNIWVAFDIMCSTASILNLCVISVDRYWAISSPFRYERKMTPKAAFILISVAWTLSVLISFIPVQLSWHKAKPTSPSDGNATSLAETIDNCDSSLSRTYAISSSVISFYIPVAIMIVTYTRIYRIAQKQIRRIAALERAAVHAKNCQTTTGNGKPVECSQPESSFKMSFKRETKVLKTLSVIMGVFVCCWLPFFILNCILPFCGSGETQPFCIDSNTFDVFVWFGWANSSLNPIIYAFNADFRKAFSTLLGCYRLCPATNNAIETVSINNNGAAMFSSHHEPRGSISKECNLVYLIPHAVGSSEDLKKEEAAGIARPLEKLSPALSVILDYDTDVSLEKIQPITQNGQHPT
From the text: as §1

alpha2A (h) = target: T8, alpha2A (h) (Homo sapiens, UniProt P08913); assay: In vitro CEREP profiling, alpha2A (h) (antagonist radioligand); type: binding; settings: test compound 10 uM
T8 construct: purchased Eurofins Cerep (SafetyScreen44), recognised from the panel format
T8 sequence (P08913 1-465): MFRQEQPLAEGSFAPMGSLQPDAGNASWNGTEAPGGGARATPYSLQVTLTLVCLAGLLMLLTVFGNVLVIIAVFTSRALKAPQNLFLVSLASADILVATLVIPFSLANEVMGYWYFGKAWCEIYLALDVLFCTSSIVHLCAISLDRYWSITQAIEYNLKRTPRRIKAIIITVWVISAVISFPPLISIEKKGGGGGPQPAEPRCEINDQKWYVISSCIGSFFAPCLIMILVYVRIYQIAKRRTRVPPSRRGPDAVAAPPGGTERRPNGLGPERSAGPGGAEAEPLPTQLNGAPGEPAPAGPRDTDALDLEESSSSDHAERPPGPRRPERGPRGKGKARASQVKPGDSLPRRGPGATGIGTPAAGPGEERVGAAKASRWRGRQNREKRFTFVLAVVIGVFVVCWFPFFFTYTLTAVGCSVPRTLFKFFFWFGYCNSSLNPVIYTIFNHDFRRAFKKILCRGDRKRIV
From the text: as §1

in vitro = settings: human, hela-ace2 cells, 50.0
delta (DOP) (h) = target: T9, delta (DOP) (h) (Homo sapiens, UniProt P41143); assay: In vitro CEREP profiling, delta (DOP) (h) (agonist radioligand); type: binding; settings: test compound concentration 10 uM
T9 construct: purchased Eurofins Cerep (SafetyScreen44), recognised from the panel format
T9 sequence (P41143 whole entry): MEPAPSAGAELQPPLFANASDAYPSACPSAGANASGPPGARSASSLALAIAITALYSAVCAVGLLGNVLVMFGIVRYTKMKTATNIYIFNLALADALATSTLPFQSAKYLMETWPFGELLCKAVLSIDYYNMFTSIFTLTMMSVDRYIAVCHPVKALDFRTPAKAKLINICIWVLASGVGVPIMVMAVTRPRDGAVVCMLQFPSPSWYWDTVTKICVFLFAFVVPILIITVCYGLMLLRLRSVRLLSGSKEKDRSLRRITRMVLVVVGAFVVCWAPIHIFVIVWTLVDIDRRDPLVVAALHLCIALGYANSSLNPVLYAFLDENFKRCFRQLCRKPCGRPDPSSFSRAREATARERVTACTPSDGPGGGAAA
From the text: as §1

[4] = In vitro rat hepatocyte stability; type: in vitro ADME
From the text: Supplement media-1.zip/Hepatocyte_Stability.csv, table | column: clint; t_half

Lck kinase (h) = target: T10, Lck kinase (h) (Homo sapiens, UniProt P06239); assay: In vitro CEREP profiling, Lck kinase (h); type: biochemical; settings: test compound concentration 10 uM; Enzyme and Cell-based assays
T10 construct: purchased Eurofins Cerep (SafetyScreen44), recognised from the panel format
From the text: as §1

PDE3A (h) = target: T11, PDE3A (h) (Homo sapiens, UniProt Q14432); assay: In vitro CEREP profiling, PDE3A (h); type: biochemical; settings: test compound concentration 10 uM; Enzyme and Cell-based assays
T11 construct: purchased Eurofins Cerep (SafetyScreen44), recognised from the panel format
T11 sequence (Q14432 whole entry): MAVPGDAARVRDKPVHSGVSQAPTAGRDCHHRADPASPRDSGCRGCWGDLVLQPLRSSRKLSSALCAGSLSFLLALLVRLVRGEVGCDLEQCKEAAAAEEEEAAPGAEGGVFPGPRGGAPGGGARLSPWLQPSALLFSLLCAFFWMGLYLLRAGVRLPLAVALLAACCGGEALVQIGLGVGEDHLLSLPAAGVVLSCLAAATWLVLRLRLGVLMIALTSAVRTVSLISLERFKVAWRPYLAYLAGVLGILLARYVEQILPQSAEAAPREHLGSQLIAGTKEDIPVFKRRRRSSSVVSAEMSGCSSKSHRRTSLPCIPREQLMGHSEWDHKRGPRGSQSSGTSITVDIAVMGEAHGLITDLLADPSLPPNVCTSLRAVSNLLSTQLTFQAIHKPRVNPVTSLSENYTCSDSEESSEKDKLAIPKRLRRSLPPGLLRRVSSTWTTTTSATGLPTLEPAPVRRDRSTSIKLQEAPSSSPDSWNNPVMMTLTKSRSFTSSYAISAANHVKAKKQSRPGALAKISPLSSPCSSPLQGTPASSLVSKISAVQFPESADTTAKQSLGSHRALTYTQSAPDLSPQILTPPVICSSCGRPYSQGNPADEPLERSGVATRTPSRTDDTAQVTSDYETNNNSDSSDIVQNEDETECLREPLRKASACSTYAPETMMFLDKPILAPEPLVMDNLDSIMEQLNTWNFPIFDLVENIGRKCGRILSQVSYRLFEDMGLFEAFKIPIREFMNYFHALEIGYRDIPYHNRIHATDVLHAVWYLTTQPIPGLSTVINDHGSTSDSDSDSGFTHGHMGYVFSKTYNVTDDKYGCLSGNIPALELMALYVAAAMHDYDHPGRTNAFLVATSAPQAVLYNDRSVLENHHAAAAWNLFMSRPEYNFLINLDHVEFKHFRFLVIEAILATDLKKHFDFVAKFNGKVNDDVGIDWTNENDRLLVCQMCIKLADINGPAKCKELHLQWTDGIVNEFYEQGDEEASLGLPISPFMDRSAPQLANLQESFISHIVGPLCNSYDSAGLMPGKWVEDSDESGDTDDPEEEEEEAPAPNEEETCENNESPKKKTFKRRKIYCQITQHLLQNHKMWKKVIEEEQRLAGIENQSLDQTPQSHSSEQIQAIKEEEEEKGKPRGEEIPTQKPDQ
From the text: as §1

Cn1ncc(-c2cc3c(N[C@@H](c4ccc5c(n4)OCCO5)C(C)(C)C)ncnc3[nH]2)c1C#N [ASAP-0011221]
clint [1]: 226.0 µL/min/mg
perc_remaining [1]: 2.0%
t_half [1]: 7.4 min
perc_remaining_no_cofactor ([1]; no cofactor): 94.0%
perc_inhibition (% inhibition of the binding of a ligand specific for each target) (CB2 (h)): 31%
perc_inhibition: % inhibition of the binding of a ligand specific for each target, 5-HT transporter (h) (antagonist radioligand) (5-HT transporter (h)): 2%
perc_max_measured ([2]; maximum measured response): 101.751%
perc_max_measured ([2]; maximum measured response of dose series): 108.122%
perc_min_measured ([2]; minimum measured response): 4.671%
perc_min_measured ([2]; minimum measured response of dose series): 8.006%
EC50 ([2]; read-out: ec50): 1.49 µM and 1.6 µM
EC90 ([2]; read-out: ec90): > 20 µM
perc_inhibition (% inhibition of the binding of a ligand specific for each target) [3]: -5%
perc_inhibition (% inhibition of the binding of a ligand specific for each target) (GR (h)): 28%
IC50 (CYP; isoform 1A2): > 50 µM
potency (CYP; isoform 1A2): weak
IC50 (CYP; isoform 2C9): 42.6 µM
potency (CYP; isoform 2C9): weak
IC50 (CYP; isoform 2C19): > 50 µM
potency (CYP; isoform 2C19): weak
IC50 (CYP; isoform 2D6): 20.5 µM
potency (CYP; isoform 2D6): weak
IC50 (CYP; isoform 3A4): 8.79 µM
potency (CYP; isoform 3A4): moderate
perc_inhibition: % inhibition of control enzyme activity, acetylcholinesterase (h) (acetylcholinesterase (h)): 14%
perc_inhibition (% inhibition of the binding of a ligand specific for each target) (5-HT2A (h)): -2%
perc_inhibition (% inhibition of the binding of a ligand specific for each target) (D1 (h)): 9%
perc_inhibition (% inhibition of the binding of a ligand specific for each target) (alpha2A (h)): 11%
CC50 at 24 h (in vitro): > 20 µM
perc_inhibition (% inhibition of the binding of a ligand specific for each target) (delta (DOP) (h)): 15%
clint [4]: 185.0 uL/min/1E6 cells
t_half [4]: 3.76 min
perc_inhibition: % inhibition of control enzyme activity, Lck kinase (h) (Lck kinase (h)): 47%
perc_inhibition: % inhibition of control enzyme activity, PDE3A (h) (PDE3A (h)): 37%
